“Also recorded” adds a separate entry of the source. Read-outs that look alike come from different tables or passages of the source.
What was measured:
CYP1A2 = assay: in vitro; type: in vitro ADME, human; conditions: 48 h
CYP2C8 = CYP2C8 (Homo sapiens, UniProt P10632); assay: CYP inhibition in pooled human liver microsomes, paclitaxel probe; type: in vitro ADME; conditions: read-out: IC50, No preincubation; CYP2C8, pooled HLMs, n = 3
CYP2B6 = assay: in vitro; type: in vitro ADME, human; conditions: 48 h
human OAT3 = target: T1, human OAT3 (Homo sapiens, UniProt Q8TCC7); assay: Transporter inhibition, uptake assay; type: in vitro ADME
T1 sequence (Q8TCC7 1-542): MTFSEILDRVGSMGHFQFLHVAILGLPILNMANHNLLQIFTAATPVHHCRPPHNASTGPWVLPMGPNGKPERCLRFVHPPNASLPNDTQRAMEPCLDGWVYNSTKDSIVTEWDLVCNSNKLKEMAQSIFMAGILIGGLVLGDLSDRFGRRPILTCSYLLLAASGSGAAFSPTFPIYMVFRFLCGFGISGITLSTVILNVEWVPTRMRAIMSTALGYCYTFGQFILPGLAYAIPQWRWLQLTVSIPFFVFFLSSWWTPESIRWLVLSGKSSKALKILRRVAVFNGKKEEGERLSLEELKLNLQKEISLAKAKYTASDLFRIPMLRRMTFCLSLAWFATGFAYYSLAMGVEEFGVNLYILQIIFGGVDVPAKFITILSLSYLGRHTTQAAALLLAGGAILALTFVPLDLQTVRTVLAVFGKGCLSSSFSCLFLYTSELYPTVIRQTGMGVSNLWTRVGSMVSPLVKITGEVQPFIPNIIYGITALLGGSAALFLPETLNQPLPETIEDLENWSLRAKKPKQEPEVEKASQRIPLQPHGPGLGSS

human BSEP = human BSEP (Homo sapiens, UniProt O95342); assay: Transporter inhibition, vesicular transport assay; type: in vitro ADME
human BSEP, sequence (O95342 whole entry): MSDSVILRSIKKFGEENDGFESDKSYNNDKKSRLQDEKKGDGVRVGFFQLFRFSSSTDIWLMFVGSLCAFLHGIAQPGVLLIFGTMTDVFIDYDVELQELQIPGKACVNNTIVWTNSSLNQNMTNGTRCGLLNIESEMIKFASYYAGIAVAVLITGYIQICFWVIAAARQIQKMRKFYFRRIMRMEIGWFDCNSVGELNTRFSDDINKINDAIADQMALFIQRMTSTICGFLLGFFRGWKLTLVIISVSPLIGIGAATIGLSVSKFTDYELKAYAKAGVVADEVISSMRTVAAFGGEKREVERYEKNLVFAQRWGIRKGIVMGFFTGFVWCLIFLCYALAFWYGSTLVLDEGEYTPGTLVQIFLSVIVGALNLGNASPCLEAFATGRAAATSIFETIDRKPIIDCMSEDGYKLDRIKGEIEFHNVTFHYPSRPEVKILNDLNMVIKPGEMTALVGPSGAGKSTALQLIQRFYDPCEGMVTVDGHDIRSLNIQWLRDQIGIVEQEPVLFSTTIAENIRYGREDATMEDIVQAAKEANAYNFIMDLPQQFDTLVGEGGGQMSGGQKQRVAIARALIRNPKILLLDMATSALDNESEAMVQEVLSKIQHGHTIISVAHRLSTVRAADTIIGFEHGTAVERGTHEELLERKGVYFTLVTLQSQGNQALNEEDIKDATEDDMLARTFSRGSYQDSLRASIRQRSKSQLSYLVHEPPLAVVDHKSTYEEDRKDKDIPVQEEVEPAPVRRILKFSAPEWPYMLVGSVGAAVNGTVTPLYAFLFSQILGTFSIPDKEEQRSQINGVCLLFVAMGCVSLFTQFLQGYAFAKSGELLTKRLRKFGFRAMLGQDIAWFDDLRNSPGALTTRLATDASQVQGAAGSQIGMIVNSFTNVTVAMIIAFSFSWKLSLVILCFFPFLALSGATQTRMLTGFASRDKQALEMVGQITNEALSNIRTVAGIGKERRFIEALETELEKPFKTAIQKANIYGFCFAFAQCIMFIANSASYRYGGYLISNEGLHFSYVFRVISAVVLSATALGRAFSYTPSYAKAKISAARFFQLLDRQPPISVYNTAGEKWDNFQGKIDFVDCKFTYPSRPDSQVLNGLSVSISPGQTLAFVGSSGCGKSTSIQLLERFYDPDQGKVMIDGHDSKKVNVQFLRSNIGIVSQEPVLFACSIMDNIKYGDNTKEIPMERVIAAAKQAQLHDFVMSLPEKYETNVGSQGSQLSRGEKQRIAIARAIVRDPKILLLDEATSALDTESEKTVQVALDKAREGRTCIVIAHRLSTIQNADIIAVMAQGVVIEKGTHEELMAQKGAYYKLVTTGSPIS

CYP3A4 = conditions: 48 h

CYP2C8, sequence (P10632 whole entry): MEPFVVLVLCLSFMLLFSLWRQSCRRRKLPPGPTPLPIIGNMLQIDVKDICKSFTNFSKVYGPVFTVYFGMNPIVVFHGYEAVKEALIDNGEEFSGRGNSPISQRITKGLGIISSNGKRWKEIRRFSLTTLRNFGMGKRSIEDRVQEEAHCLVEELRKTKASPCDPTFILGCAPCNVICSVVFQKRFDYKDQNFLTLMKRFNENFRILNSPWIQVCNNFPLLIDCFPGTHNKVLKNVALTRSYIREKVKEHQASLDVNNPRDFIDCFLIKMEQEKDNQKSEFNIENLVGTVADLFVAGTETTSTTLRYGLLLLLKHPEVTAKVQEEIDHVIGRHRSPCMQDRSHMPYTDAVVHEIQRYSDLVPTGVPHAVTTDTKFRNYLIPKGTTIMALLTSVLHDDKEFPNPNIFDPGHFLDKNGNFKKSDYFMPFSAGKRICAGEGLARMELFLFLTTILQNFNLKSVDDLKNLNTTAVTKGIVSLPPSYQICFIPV

## CC1=N[C@]2(C(=O)CO)[C@@H](C[C@H]3[C@@H]4C[C@@H](O)C5=CC(=O)C=C[C@]5(C)[C@H]4[C@@H](O)C[C@@]32C)O1 [6β‐OH‐21‐desDFZ, 6β‐Hydroxy‐21‐desacetyl deflazacort]
CYP1A2; donor one, 0.002 µM
  CYP1A2 enzyme activity fold induction: 0.783 fold
  CYP1A2 mRNA fold induction: 0.657 fold
CYP1A2; donor one, 0.01 µM
  CYP1A2 enzyme activity fold induction: 0.671 fold
  CYP1A2 mRNA fold induction: 0.735 fold
CYP1A2; donor one, 0.05 µM
  CYP1A2 enzyme activity fold induction: 0.649 fold
  CYP1A2 mRNA fold induction: 0.735 fold
CYP1A2; donor one, 0.25 µM
  CYP1A2 enzyme activity fold induction: 0.753 fold
  CYP1A2 mRNA fold induction: 0.667 fold
CYP1A2; donor one, 5 µM
  CYP1A2 enzyme activity fold induction: 0.770 fold
  CYP1A2 mRNA fold induction: 0.628 fold
CYP1A2; donor one, 10 µM
  CYP1A2 enzyme activity fold induction: 0.772 fold
  CYP1A2 mRNA fold induction: 0.619 fold
CYP1A2; donor one, 20 µM
  CYP1A2 enzyme activity fold induction: 0.699 fold
  CYP1A2 mRNA fold induction: 0.741 fold
CYP1A2; donor three, 0.002 µM
  CYP1A2 enzyme activity fold induction: 1.01 fold
  CYP1A2 mRNA fold induction: 0.665 fold
CYP1A2; donor three, 0.01 µM
  CYP1A2 enzyme activity fold induction: 0.892 fold
  CYP1A2 mRNA fold induction: 0.744 fold
CYP1A2; donor three, 0.05 µM
  CYP1A2 enzyme activity fold induction: 0.812 fold
  CYP1A2 mRNA fold induction: 0.701 fold
CYP1A2; donor three, 0.25 µM
  CYP1A2 enzyme activity fold induction: 0.747 fold
  CYP1A2 mRNA fold induction: 0.610 fold
CYP1A2; donor three, 5 µM
  CYP1A2 enzyme activity fold induction: 0.870 fold
  CYP1A2 mRNA fold induction: 0.635 fold
CYP1A2; donor three, 10 µM
  CYP1A2 enzyme activity fold induction: 0.954 fold
  CYP1A2 mRNA fold induction: 0.647 fold
CYP1A2; donor three, 20 µM
  CYP1A2 enzyme activity fold induction: 0.955 fold
  CYP1A2 mRNA fold induction: 0.723 fold
CYP1A2; donor two, 0.002 µM
  CYP1A2 enzyme activity fold induction: 0.913 fold
  CYP1A2 mRNA fold induction: 0.978 fold
CYP1A2; donor two, 0.01 µM
  CYP1A2 enzyme activity fold induction: 0.880 fold
  CYP1A2 mRNA fold induction: 0.871 fold
CYP1A2; donor two, 0.05 µM
  CYP1A2 enzyme activity fold induction: 0.838 fold
  CYP1A2 mRNA fold induction: 0.928 fold
CYP1A2; donor two, 0.25 µM
  CYP1A2 enzyme activity fold induction: 0.832 fold
  CYP1A2 mRNA fold induction: 0.979 fold
CYP1A2; donor two, 5 µM
  CYP1A2 enzyme activity fold induction: 1.18 fold
  CYP1A2 mRNA fold induction: 0.786 fold
CYP1A2; donor two, 10 µM
  CYP1A2 enzyme activity fold induction: 1.07 fold
  CYP1A2 mRNA fold induction: 0.840 fold
CYP1A2; donor two, 20 µM
  CYP1A2 enzyme activity fold induction: 1.18 fold
  CYP1A2 mRNA fold induction: 0.886 fold
CYP2C8
  IC50: > 50 µM
CYP2B6; donor one, 0.002 µM
  CYP2B6 enzyme activity fold induction: 0.921 fold
  CYP2B6 mRNA fold induction: 0.680 fold
CYP2B6; donor one, 0.01 µM
  CYP2B6 enzyme activity fold induction: 0.826 fold
  CYP2B6 mRNA fold induction: 0.750 fold
CYP2B6; donor one, 0.05 µM
  CYP2B6 enzyme activity fold induction: 0.767 fold
  CYP2B6 mRNA fold induction: 0.736 fold
CYP2B6; donor one, 0.25 µM
  CYP2B6 enzyme activity fold induction: 0.752 fold
  CYP2B6 mRNA fold induction: 0.794 fold
CYP2B6; donor one, 5 µM
  CYP2B6 enzyme activity fold induction: 0.832 fold
  CYP2B6 mRNA fold induction: 0.616 fold
CYP2B6; donor one, 10 µM
  CYP2B6 enzyme activity fold induction: 0.814 fold
  CYP2B6 mRNA fold induction: 0.663 fold
CYP2B6; donor one, 20 µM
  CYP2B6 enzyme activity fold induction: 0.896 fold
  CYP2B6 mRNA fold induction: 0.756 fold
CYP2B6; donor three, 0.002 µM
  CYP2B6 enzyme activity fold induction: 0.836 fold
  CYP2B6 mRNA fold induction: 0.704 fold
CYP2B6; donor three, 0.01 µM
  CYP2B6 enzyme activity fold induction: 0.829 fold
  CYP2B6 mRNA fold induction: 0.745 fold
CYP2B6; donor three, 0.05 µM
  CYP2B6 enzyme activity fold induction: 0.829 fold
  CYP2B6 mRNA fold induction: 0.721 fold
CYP2B6; donor three, 0.25 µM
  CYP2B6 enzyme activity fold induction: 0.810 fold
  CYP2B6 mRNA fold induction: 0.726 fold
CYP2B6; donor three, 5 µM
  CYP2B6 enzyme activity fold induction: 1.01 fold
  CYP2B6 mRNA fold induction: 0.791 fold
CYP2B6; donor three, 10 µM
  CYP2B6 enzyme activity fold induction: 1.13 fold
  CYP2B6 mRNA fold induction: 0.806 fold
CYP2B6; donor three, 20 µM
  CYP2B6 enzyme activity fold induction: 1.08 fold
  CYP2B6 mRNA fold induction: 0.840 fold
CYP2B6; donor two, 0.002 µM
  CYP2B6 enzyme activity fold induction: 0.960 fold
  CYP2B6 mRNA fold induction: 0.643 fold
CYP2B6; donor two, 0.01 µM
  CYP2B6 enzyme activity fold induction: 0.895 fold
  CYP2B6 mRNA fold induction: 0.522 fold
CYP2B6; donor two, 0.05 µM
  CYP2B6 enzyme activity fold induction: 0.944 fold
  CYP2B6 mRNA fold induction: 0.571 fold
CYP2B6; donor two, 0.25 µM
  CYP2B6 enzyme activity fold induction: 0.963 fold
  CYP2B6 mRNA fold induction: 0.622 fold
CYP2B6; donor two, 5 µM
  CYP2B6 enzyme activity fold induction: 1.22 fold
  CYP2B6 mRNA fold induction: 0.515 fold
CYP2B6; donor two, 10 µM
  CYP2B6 enzyme activity fold induction: 1.20 fold
  CYP2B6 mRNA fold induction: 0.596 fold
CYP2B6; donor two, 20 µM
  CYP2B6 enzyme activity fold induction: 1.40 fold
  CYP2B6 mRNA fold induction: 0.809 fold
CYP2B6; human hepatocytes, three donors
  induction of CYP2B6 (mRNA or enzyme activity), conclusion: no meaningful concentration‐dependent induction; also recorded: did not appear to be an inducer; also recorded: did not induce
Human OAT3; OAT3, up to 50 µM
  inhibitory interaction with transporter: did not show interaction; also recorded: no inhibitory interaction
Human OAT3; OAT3 UPT, n = 3
  Maximum inhibition at 50 µM: <20 % of control
Human BSEP; BSEP VT, n = 3
  Maximum inhibition at 50 µM: 27 % of control
Human BSEP; BSEP, up to 50 µM
  inhibitory interaction with transporter: no inhibitory interaction
CYP3A4; donor one, 0.002 µM
  CYP3A4 enzyme activity fold induction: 0.600 fold
  CYP3A4 mRNA fold induction: 0.450 fold
CYP3A4; donor one, 0.01 µM
  CYP3A4 enzyme activity fold induction: 0.595 fold
  CYP3A4 mRNA fold induction: 0.583 fold
CYP3A4; donor one, 0.05 µM
  CYP3A4 enzyme activity fold induction: 0.604 fold
  CYP3A4 mRNA fold induction: 0.507 fold
CYP3A4; donor one, 0.25 µM
  CYP3A4 enzyme activity fold induction: 0.685 fold
  CYP3A4 mRNA fold induction: 0.681 fold
CYP3A4; donor one, 5 µM
  CYP3A4 enzyme activity fold induction: 0.451 fold
  CYP3A4 mRNA fold induction: 0.647 fold
CYP3A4; donor one, 10 µM
  CYP3A4 enzyme activity fold induction: 0.446 fold
  CYP3A4 mRNA fold induction: 0.890 fold
CYP3A4; donor one, 20 µM
  CYP3A4 enzyme activity fold induction: 0.561 fold
  CYP3A4 mRNA fold induction: 1.74 fold
CYP3A4; donor three, 0.002 µM
  CYP3A4 enzyme activity fold induction: 0.626 fold
  CYP3A4 mRNA fold induction: 0.562 fold
CYP3A4; donor three, 0.01 µM
  CYP3A4 enzyme activity fold induction: 0.543 fold
  CYP3A4 mRNA fold induction: 0.484 fold
CYP3A4; donor three, 0.05 µM
  CYP3A4 enzyme activity fold induction: 0.545 fold
  CYP3A4 mRNA fold induction: 0.450 fold
CYP3A4; donor three, 0.25 µM
  CYP3A4 enzyme activity fold induction: 0.668 fold
  CYP3A4 mRNA fold induction: 0.684 fold
CYP3A4; donor three, 5 µM
  CYP3A4 enzyme activity fold induction: 0.542 fold
  CYP3A4 mRNA fold induction: 0.615 fold
CYP3A4; donor three, 10 µM
  CYP3A4 enzyme activity fold induction: 0.563 fold
  CYP3A4 mRNA fold induction: 0.764 fold
CYP3A4; donor three, 20 µM
  CYP3A4 enzyme activity fold induction: 0.637 fold
  CYP3A4 mRNA fold induction: 1.33 fold
CYP3A4; donor two, 0.002 µM
  CYP3A4 enzyme activity fold induction: 0.601 fold
  CYP3A4 mRNA fold induction: 0.739 fold
CYP3A4; donor two, 0.01 µM
  CYP3A4 enzyme activity fold induction: 0.635 fold
  CYP3A4 mRNA fold induction: 0.714 fold
CYP3A4; donor two, 0.05 µM
  CYP3A4 enzyme activity fold induction: 0.657 fold
  CYP3A4 mRNA fold induction: 0.739 fold
CYP3A4; donor two, 0.25 µM
  CYP3A4 enzyme activity fold induction: 0.769 fold
  CYP3A4 mRNA fold induction: 0.817 fold
CYP3A4; donor two, 5 µM
  CYP3A4 enzyme activity fold induction: 0.690 fold
  CYP3A4 mRNA fold induction: 0.856 fold
CYP3A4; donor two, 10 µM
  CYP3A4 enzyme activity fold induction: 0.637 fold
  CYP3A4 mRNA fold induction: 1.02 fold
CYP3A4; donor two, 20 µM
  CYP3A4 enzyme activity fold induction: 0.856 fold
  CYP3A4 mRNA fold induction: 1.95 fold
